# Source: patent publication US20070270493A1, “Composition with Preventive or Improvement Effect on Stress-Induced Brain Function Impairment and Related Symptoms or Diseases” (priority 2004, published 2007)
# Tested on: mice subjected to restraint stress
# Test: Morris water maze learning test
# Assay type: in vivo, male ICR mice
# Conditions: mice after 6 hour restraint stress; TGA40S-containing diet from 3 weeks before, about 25 mg TGA40S (10 mg arachidonic acid) per mouse daily; five trials a day for 5 days; FIG. 1
# Description: The experimental groups consisted of 56 two- to three-month-old male ICR mice, divided into a control diet group (27 mice) and a TGA40S-containing diet group (29 mice), with the control diet or TGA40S-containing diet shown in Table 1 being given to each group for 3 weeks. Each group was further divided into non-restrained groups (non-restrained control diet group (13), non-restrained arachidonic acid (ARA) diet group (15)) and restrained groups (restrained control diet group (14), restrained ARA diet group ([…])). The restraining was accomplished using a wire mesh restraining tube, once for a 6 hour period three weeks after the start of feeding. The control diet or TGA40S-containing diet shown in Table 1 continued to be fed to each group for the remaining experiment period. The TGA40S used for the TGA40S-containing diet was the product obtained in Example 1. Since the daily ingestion was approximately 5 g per mouse, the daily intake of TGA40S was 25 mg per mouse. Also, since the total fatty acids bonded to the arachidonic acid-containing oils or fats (triglycerides) prepared in Example 1 included 40 wt % arachidonic acid, the daily intake of arachidonic acid was 10 mg per mouse. […] The time required for the mouse to reach the escape platform (escape latency time) was recorded as the learning index.
smiles,measurement,value
CCCCC/C=C\C/C=C\C/C=C\C/C=C\CCCC(=O)O [arachidonic acid],"learning ability (escape latency time, time required to reach the escape platform)",exhibits an improving effect against decline in learning ability or cognitive ability as a result of stress
